Results: patent publication US11647751B2, “Use of phosphorus containing herbicides as desiccant for plants of the genus Saccharum” (BASF SE, priority 2013, dated 2023)

System: Saccharum officinarum plants
Experiment: Field trial: desiccation of sugarcane leaves after application of diluted glufosinate-ammonium compositions
Format: in vivo
Conditions: growth stage BBCH 49 (approx. 300 cm), evaluation 2 weeks after application
Description: The compositions described in the table above were diluted with water and applied to a field of Saccharum officinarum plants at growth stage BBCH 49 (approximately 300 cm growth height; corresponding to about 2 weeks before harvest), such that the amount of glufosinate ammonium was 800 g/ha or 1000 g/ha, respectively.

CP(=O)(O)CCC(N)C(=O)O (centres unmarked) [glufosinate ammonium, 2-amino-4-[hydroxy(methyl)phosphinoyl]butanoic acid]
desiccation of sugarcane leaves (800 g/ha glufosinate ammonium): 54%
desiccation of sugarcane leaves (1000 g/ha glufosinate ammonium): 60%
